Test results taken from PMC12261228 (ACS Pharmacology & Translational Science, 2025).
“Also recorded” adds a separate entry of the source. Like-named read-outs stand apart in the source and are kept apart here.

Columns and labels:
[1] = test system: CCRF-CEM; assay: MTS cytotoxicity assay, 72 h; format: cell-based
[2] = test system: CEM-DNR; assay: MTS cytotoxicity assay, 72 h; format: cell-based; details: Homo sapiens, read-out: IC50 CEM-DNR
[3] = test system: K562; assay: MTS cytotoxicity assay, 72 h; format: cell-based; details: Homo sapiens, K562, 72 h, read-out: IC50 K562
[4] = test system: K562-TAX; assay: MTS cytotoxicity assay, 72 h; format: cell-based; details: read-out: IC50 K562-TAX
[5] = test system: HCT116; assay: MTS cytotoxicity assay, 72 h; format: cell-based; details: Homo sapiens, HCT-116, 72 h, read-out: IC50 HCT116
[6] = test system: HCT116p53–/–; assay: MTS cytotoxicity assay, 72 h; format: cell-based; details: read-out: IC50 HCT116p53–/–
[7] = test system: U2OS; assay: MTS cytotoxicity assay, 72 h; format: cell-based, human; details: Homo sapiens, U2OS, 72 h
[8] = test system: MRC-5; assay: MTS cytotoxicity assay, 72 h; format: cell-based; details: Homo sapiens, MRC5, 72 h, read-out: IC50 MRC-5
[9] = test system: BJ; assay: MTS cytotoxicity assay, 72 h; format: cell-based; details: Homo sapiens, read-out: IC50 BJ
[10] = test system: A549; assay: MTS cytotoxicity assay, 72 h; format: cell-based; details: Homo sapiens, Fig. S22
Experimental: Cell suspensions were prepared and diluted according to the particular cell type and the expected target cell density (500 – 4,000 cells/well). The cells (30 μL/well) were seeded to 384-well clear Corning plates by MultiDrop Combi (Thermo Fisher Scientific, USA). After 24 h the cells were treated with tested compounds as well as with vehicle (DMSO) and high controls (2.67 μM of Actinomycin D and 100 μM Mitomycin C) using contact-free acoustic liquid handler ECHO 555 (Labcyte, USA). Compounds were analyzed at a concentration range from 0.012 μM to 50 μM. Treated cells were incubated at 37 °C in a 5% CO2 atmosphere of a humidified incubator for 72 h. At the end of the incubation period, aliquots of the MTS (Promega) solution prepared according to manufacturer's instructions were added to cells (https://worldwide.promega.com/resources/protocols/technical-bulletins/0/celltiter-96-aqueous-nonradioactive-cell-proliferation-assay-protocol/). After 1 – 4 h of the incubation period, the optical density (OD) at 490 nm was measured on a multimode plate reader EnVision (PerkinElmer, USA). The experiments were performed in technical duplicates and at least three biological replicates. […] The assay quality was monitored by determining the Z′-factor for each 384-well plate. The resistance index (RI), representing the reduction in compound activity on resistant cell lines, was calculated as RI = (IC50 of resistant cell lines, CEM-DNR, K562-TAX)/(IC50 of nonresistant counterparts, CCRF-CEM, K562). Similarly, the selectivity index (SI), indicating preferential cytotoxicity toward tumor cell lines, was calculated as SI = (mean IC50 of nontumor cell lines, BJ and MRC5)/(mean IC50 of cancer cell lines without resistant variants, CCRF-CEM, K562, HCT116, HCT116p53–/–, U2OS).

[11] = test system: HUVEC; assay: MTS cytotoxicity assay, 72 h; format: cell-based; details: Homo sapiens, 3-day incubation, mean ± SD
[12] = test system: microtubules in U2OS cells; assay: Immunofluorescence of microtubule organization; format: cell-based, human; details: 15 h
Experimental: DMSO at appropriate dilution served as control.
Immunofluorescence microscopy on formaldehyde-fixed, Triton X-100 extracted cells (F/Tx) was performed as previously described. Extraction and fixation steps were carried out in a microtubule stabilizing buffer consisting of 0.1 M KMes, 2 mM EGTA, 2 mM MgCl2, 4% polyethylene glycol 6000, pH 6.9. Cells were fixed for 30 min in 3% formaldehyde before extraction for 4 min with 0.5% Triton X-100 at 37 °C. Mouse monoclonal antibody TU-01 (IgG1) directed to α-tubulin , in the form of hybridoma spent culture medium was diluted 1:10. The DyLight 549-conjugated antimouse antibody (Jackson Immunoresearch Laboratories, West Grove, PA, USA) was diluted 1:500. Samples were mounted in MOWIOL 4–88 (Calbiochem, San Diego, CA, USA) supplemented with 4,6-diamidino-2-phenylindole (DAPI; Sigma-Aldrich, St. Louis, MO, USA) and examined with an Olympus AX-70 Provis microscope (Olympus, Hamburg, Germany) equipped with a 60×/1.0 water objective.

[13] = test system: panel of cell lines
[14] = test system: CCRF-CEM lymphoblasts; assay: FACS analysis of cell cycle, apoptosis, mitosis and polyploidy; details: for Mitosis: phospho-Histone (Ser10); for Apoptosis: sub-G0/G1 DNA content, % of positive cells
[15] = Homo sapiens, CCRF-CEM, 72 h, MTS assay, 3-day incubation, mean ± SD of 3 experiments, read-out: IC50 CCRF-CEM
[16] = daunorubicin-resistant, MTS assay, 3-day incubation, mean ± SD
[17] = MTS assay, 3-day incubation, mean ± SD
[18] = paclitaxel-resistant, MTS assay, 3-day incubation, mean ± SD
[19] = MTS assay, 3-day incubation, mean ± SD, read-out: IC50 U2OS
[20] = normal fibroblasts, MTS assay, 3-day incubation, mean ± SD
[21] = Homo sapiens, CCRF-CEM, 72 h, read-out: IC50 CCRF-CEM, MTS assay, 3-day incubation, mean ± SD of 3 experiments

Row | Compound | IC50 [1, 15] | IC50 [2, 16] | IC50 [3, 17] | IC50 [4, 18] | IC50 [5, 17] | IC50 [6, 17] | IC50 [7, 19] | IC50 [8, 20] | IC50 [9, 20] | IC50 [10] | G0/G1 ([14]; 1×IC50, 24 h) | G2/M ([14]; 1×IC50, 24 h) | Polyploid cells ([14]; 1×IC50, 24 h) | S ([14]; 1×IC50, 24 h) | Mitosis ([14]; 1×IC50, 24 h) | Apoptosis ([14]; 1×IC50, 24 h) | G0/G1 ([14]; 5×IC50, 24 h) | Polyploid cells ([14]; 5×IC50, 24 h) | S ([14]; 5×IC50, 24 h) | Mitosis ([14]; 5×IC50, 24 h) | further results
1 | COc1cc(C2=C3C(C)=CC(C)=[N+]3[B-](F)(F)n3c(C)cc(C)c32)ccc1O [B7] | > 50 µM | 39.9 µM | > 50 µM | > 50 µM | > 50 µM | > 50 µM | > 50 µM | > 50 µM | > 50 µM | > 50 µM | – | – | – | – | – | – | – | – | – | – | –
2 | C#CCOc1ccc(C2=C3C(C)=CC(C)=[N+]3[B-](F)(F)n3c(C)cc(C)c32)cc1OC [B8] | > 50 µM | > 50 µM | > 50 µM | > 50 µM | > 50 µM | > 50 µM | > 50 µM | > 50 µM | > 50 µM | > 50 µM | – | – | – | – | – | – | – | – | – | – | –
3 | C#CCCCC1=C2C(C)=CC(C)=[N+]2[B-](F)(F)n2c(C)cc(C)c21 [B9] | > 50 µM | > 50 µM | > 50 µM | > 50 µM | > 50 µM | > 50 µM | > 50 µM | > 50 µM | > 50 µM | > 50 µM | – | – | – | – | – | – | – | – | – | – | –
4 | C#CCCCCCCCCC1=C2C(C)=CC(C)=[N+]2[B-](F)(F)n2c(C)cc(C)c21 [B10] | > 50 µM | > 50 µM | > 50 µM | > 50 µM | > 50 µM | > 50 µM | > 50 µM | > 50 µM | > 50 µM | > 50 µM | – | – | – | – | – | – | – | – | – | – | –
5 | COc1cc2c(c(OC)c1OC)-c1ccc(OC)c(=O)cc1[C@@H](n1cc(CCCC3=C4C(C)=CC(C)=[N+]4[B-](F)(F)n4c(C)cc(C)c43)nn1)CC2 [CB4] | – | – | – | – | – | – | – | – | – | – | 41.19% | 27.75% | 19.29% | 31.06% | 2.76% | 3.04% | 5.49% | 23.72% | 1.83% | 64.43% | IC50 [1, 21]: 0.02 ± 0.0009 µM; IC50 [3]: 0.088 ± 0.013 µM; IC50 [5]: 0.1 ± 0.004 µM; IC50 [6]: 0.12 ± 0.012 µM; IC50 [8]: > 50 µM; IC50 [9]: > 50 µM; IC50 [11]: < 0.0122 µM; effect on microtubules (in words) ([12]; 10 μM): microtubule remnants were detectable; also recorded: perinuclear bundles were observed; also recorded: disruption of microtubule organization and generation of perinuclear microtubule bundles; cytotoxic activity across the cell line panel (in words) [13]: changed only slightly; Apoptosis ([14]; 5×IC50, 24 h): 12.24%
6 | COc1cc2c(c(OC)c1OC)-c1ccc(NCCCCC3=C4C(C)=CC(C)=[N+]4[B-](F)(F)n4c(C)cc(C)c43)c(=O)cc1[C@@H](NC(C)=O)CC2 [CB10] | – | – | – | – | – | – | – | – | – | – | 34.04% | 26.65% | 12.43% | 39.32% | 2.86% | 3.87% | 8.21% | 25.51% | 29.17% | 36.02% | IC50 [1, 21]: 7.13 µM; IC50 ([1]; read-out: IC50 CCRF-CEM, MTS assay, 3-day incubation, mean ± SD of 3 experiments): 7.11 ± 0.651 µM; IC50 [2]: 11.1 ± 0.959 µM; IC50 [3]: 10.8 ± 0.431 µM; IC50 [4]: 14.8 ± 2.94 µM; IC50 [5]: 35.8 ± 5.91 µM; IC50 [6]: > 50 µM; IC50 ([7]; read-out: IC50 U2OS, MTS assay, 3-day incubation, mean ± SD): > 50 µM; IC50 [8]: > 50 µM; IC50 [9]: > 50 µM; IC50 [11]: 32.3 ± 0.42 µM; RI (resistance index) [13]: 1.45; SI (selectivity index) [13]: >1.63; cytotoxic activity across the cell line panel (in words) [13]: significantly lower; G2/M ([14]; 5×IC50, 24 h): 62.62%; Apoptosis ([14]; 5×IC50, 24 h): 11.26%
7 | COc1cc2c(c(OC)c1OC)-c1ccc(OC)c(=O)cc1[C@@H](NC(C)=O)CC2 [Col, colchicine, reference compound] | – | – | – | – | – | – | – | – | – | – | 2.61% | 80.55% | 14.45% | 16.84% | 58.35% | 13.67% | 4.73% | 14.73% | 24.71% | 64.48% | effect on microtubules (in words) ([12]; 0.1 μM): effectively depolymerized microtubules; G2/M ([14]; 5×IC50, 24 h): 70.57%; Apoptosis ([14]; 5×IC50, 24 h): 11.47%; polyploidization in CCRF-CEM cells (in words) ([14]; both 1 × IC50 and 5 × IC50): induced polyploidization
